Test results: US12584904B2, “Methods for monitoring physiological status of a body organ” (BioCrine AB, priority 2012, dated 2026)
Entries after “also recorded” stand apart in the source; their conditions may differ.

Columns and labels:
ob/ob mice [1] = test: Physiological measurements during leptin treatment of ob/ob mice; format: in vivo, mouse
Experimental: (§1) Having witnessed the behavior of individual islets in response to food over-consumption and insulin resistance, we next questioned if this growth could be refrained or even reversed by treating the ob/ob mice with leptin. Mice were injected intraperitoneally every day between 3 and 4 months of age. The physiological effects of this treatment were monitored regularly using different parameters.
Leptin treatment was performed by daily intraperitoneal injections of 1.5 μg/g body weight of recombinant human leptin (Amylin Pharmaceuticals), and sham treatment was performed by intraperitoneal injection of water instead of leptin.
(§2) Body weight and blood glucose levels were measured in a minimum of 7 mice. Glucose concentrations were obtained using Accu-Chek™ Aviva monitoring system (Roche). Glucose tolerance tests were performed by intraperitoneal injection of 2 mg glucose per gram body weight in mice fasted for 16 hours (n≥5). Plasma insulin concentrations from a minimum of 3 mice per condition were measured using mouse insulin ELISA plates (Mercodia). Leptin treatment was performed by daily intraperitoneal injections of 1.5 μg/g body weight of recombinant human leptin (Amylin Pharmaceuticals), and sham treatment was performed by intraperitoneal injection of water instead of leptin.

[2] = system: beta cells of ob/ob mouse islets; test: Immunohistochemistry of transplanted eye and pancreas sections after leptin treatment; format: in vivo; details: for proliferation of beta cells (insulin and Ki67 staining): end of leptin treatment
Experimental: Dissected tissues were briefly rinsed with PBS, fixed for 48 h at room temperature using formalin, and dehydrated and embedded in paraffin. Five-micron thick sections mounted on precoated microscope slides were dewaxed by xylene and progressively rehydrated before processing. Insulin was stained using chicken anti-insulin (1:200 dilution, Abcam) followed by goat anti-chicken Alexa™ 488 (1:1000 dilution, Invitrogen) antibodies; blood vessels were stained using rat anti-mouse CD31 (1:50 dilution, BD Pharmingen), followed by incubation of biotinylated goat anti-rat (5 μg/ml, Vector Labs) and amplification with HRP-streptavidin/Alexa™ 647-tyramide (Invitrogen); proliferation was assessed by using mouse anti-human Ki67 (1:50 dilution, Novocastra) together with M.O.M. biotinylated anti-mouse IgG (Vector Labs), and amplified using HRP-streptavidin/Alexa 647-tyramide. Nuclei were stained and slides were preserved by cover glass mounting using ProLong™ Gold Antifade Reagent with DAPI (Invitrogen). Slides were imaged using a BD Pathway 855 system (BD Biosciences). Insulin, CD31, Ki67 and DAPI stainings were imaged using a 20×/0.75NA UApo/340 Olympus objective, and overviews of pancreatic sections stained by hematoxylin/eosin were obtained by montage capture mode using a 4×/0.16NA UPlan SApo Olympus objective.
AutoQuant X2 (Media Cybernetics) was used for blind deconvolution of all in vivo confocal images before image analysis. Islet volume was analyzed based on the backscatter signal channel, using Matlab™ and the Image Processing Toolbox (Mathworks). The islet “equatorial volume”, i.e. the volume from the top of the islet down to the calculated equator, was used to represent the volume and calculate islet growth. We analyzed a minimum of 3 islet grafts per animal to determine islet growth, with a minimum of 3 mice per category. Individual vessel segments were identified at different imaging time points and their diameter measured using Volocity™ (Perkin Elmer). We established image analysis protocols in Volocity™ for automated analysis of histological sections. […]

ob/ob mice [3] = test: Intraperitoneal glucose tolerance test after leptin treatment; format: in vivo, mouse
Experimental: as §1, §2

[4] = system: islet grafts in the anterior chamber of the eye of ob/ob mice; test: Longitudinal in vivo confocal imaging of intraocular islet grafts under leptin treatment; design: species or system mouse
Description: (§3) Islet grafts in mice were imaged in vivo at specific time points after transplantation. We used an upright laser scanning confocal microscope based on TCS-SP2-AOBS (Leica) with a long-distance water-dipping objective (Leica HXC-APO 10×/0.30NA), and a custom-built stereotaxic head holder allowing to position the mouse eye containing the engrafted islets towards the objective. Viscotears (Novartis) was used as immersion liquid between the eye and the objective, and isoflurane was used to anesthetize the mice during in vivo imaging. Imaging of islet morphology was done by laser illumination at 633 nm, and collection of backscattered light at the same wavelength.
Islets were isolated from female donor mice and transplanted into the anterior chamber of the eye of male recipients, using a previously described technique (2). We anesthetized mice using isoflurane (Baxter), and approximately 10-20 islets were transplanted into the anterior chamber of the mouse eye. Islets used for transplantation were selected to be of similar size for each experiment, independent of the mouse genotype. The mice were injected subcutaneously with Temgesic™ (Schering-Plough) for postoperative analgesia.
as §3, with “transplantation as previously described (2).” for “transplantation.”, “Viscotears™” for “Viscotears”, “wavelength. For visualization of blood vessels we injected 100 μl of a solution containing 2.5 mg/ml of 500 kDa FITC-labeled dextran (Invitrogen) into the tail vein, and imaged fluorescence using 496 nm excitation wavelength. Scanning speed and laser intensities were adjusted to avoid any cellular damage to the mouse eye or islet graft.” for “wavelength.”
AutoQuant X2 (Media Cybernetics) was used for blind deconvolution of all in vivo confocal images before image analysis. Islet volume was analyzed based on the backscatter signal channel, using Matlab™ and the Image Processing Toolbox (Mathworks). The islet “equatorial volume”, i.e. the volume from the top of the islet down to the calculated equator, was used to represent the volume and calculate islet growth. We analyzed a minimum of 3 islet grafts per animal to determine islet growth, with a minimum of 3 mice per category. Individual vessel segments were identified at different imaging time points and their diameter measured using Volocity™ (Perkin Elmer). We established image analysis protocols in Volocity™ for automated analysis of histological sections. The average beta cell section area was obtained by dividing the insulin-stained area by the total number of DAPI-stained nuclei enclosed in this area (minimum of 1000 cells per tissue). Beta cell proliferation rate was obtained by counting Ki67-positive nuclei and dividing by the total number of DAPI-stained nuclei in insulin-positive cells (minimum of 10000 cells per transplanted eye or pancreas). Volocity™ was used for image display and Photoshop CS5 (Adobe) for image assembly.

[5] = daily i.p. leptin 1.5 μg/g, during treatment

leptin: recombinant human leptin (Amylin Pharmaceuticals), hormone encoded by the ob gene
body weight after the end of the treatment period (ob/ob mice [1]; after end of leptin treatment, mass similar to untreated ob/ob about one month later): rapidly increased
body weight (ob/ob mice [1]; daily i.p. leptin 1.5 μg/g between 3 and 4 months of age, during treatment): decrease
blood glucose (ob/ob mice [1]; [5]): decrease
insulin concentrations (plasma) (ob/ob mice [1]; [5]): decrease
appetite (ob/ob mice [1]; daily i.p. leptin, during treatment): visibly reduced
proliferation of beta cells (insulin and Ki67 staining) ([2]; engrafted islets (transplanted eye)): attenuated; also recorded: virtually abolished
average beta cell size ([2]; following leptin treatment, transplanted or endogenous pancreatic islets, versus age-matched untreated control mice): no significant difference compared to age-matched untreated control mice
proliferation of beta cells (insulin and Ki67 staining) ([2]; in situ pancreatic islets): attenuated; also recorded: virtually abolished
glucose handling in intraperitoneal glucose tolerance test (glucose excursions, AUC) (ob/ob mice [3]; ob/ob mice at end of treatment period, 2 mg glucose/g i.p., 16 h fasted): normalized; also recorded: glucose excursions similar to those obtained from age-matched control mice
insulin sensitivity (ob/ob mice [3]; ob/ob mice, end of leptin treatment): beneficial impact
islet growth after the end of treatment ([4]; ob/ob mice, after end of leptin or sham treatment): no difference in islet growth
islet growth (islet volume) of islet transplants ([4]; ob/ob mice, during leptin treatment versus sham treatment): reversal of islet growth; also recorded: abolished and partially reversed
angiogenesis in the islet grafts ([4]; ob/ob mice, early stage after leptin treatment): could observe angiogenesis
vessel diameter in islet grafts ([4]; ob/ob mice, leptin treatment, dextran-FITC imaging): rapid effect on blood vessel diameters; also recorded: decrease
granulation of islet cells (reflective optical properties, backscatter) ([4]; transplanted islets in leptin-treated ob/ob mice): regranulation
